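Briefly, cells in 96-well plates were exposed to five compound concentrations for 48 h, and endpoints were estimated by linear interpolation. GI50 marks 50% less growth. TGI: concentration producing complete growth inhibition.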
Tests used:
Assay in all cases: DTP human tumour cell line panel, 48 h
SK-MEL-5 melanoma = test system: SK-MEL-5 melanoma
MALME-3M melanoma = test system: MALME-3M melanoma
786-0 renal = test system: 786-0 renal
SW-620 colon = test system: SW-620 colon
SK-OV-3 ovarian = test system: SK-OV-3 ovarian
UACC-257 melanoma = test system: UACC-257 melanoma
COLO 205 colon = test system: COLO 205 colon
A549 NSCLC = test system: A549 NSCLC
HL-60(TB) leukemia = test system: HL-60(TB) leukemia
OVCAR-8 ovarian = test system: OVCAR-8 ovarian
NCI-H522 lung = test system: NCI-H522 lung
NCI-H226 lung = test system: NCI-H226 lung
OVCAR-5 ovarian = test system: OVCAR-5 ovarian
K-562 leukemia = test system: K-562 leukemia
HCT-116 colon = test system: HCT-116 colon
SK-MEL-2 melanoma = test system: SK-MEL-2 melanoma
DU-145 prostate = test system: DU-145 prostate
RXF 393 renal = test system: RXF 393 renal
MDA-MB-435 = test system: MDA-MB-435
KM12 colon = test system: KM12 colon
MOLT-4 leukemia = test system: MOLT-4 leukemia
MDA-MB-231 breast = test system: MDA-MB-231 breast
SNB-75 CNS = test system: SNB-75 CNS
SF-268 CNS = test system: SF-268 CNS
HS 578T breast = test system: HS 578T breast
UACC-62 melanoma = test system: UACC-62 melanoma
SN12C renal = test system: SN12C renal
EKVX NSCLC = test system: EKVX NSCLC
SNB-19 CNS = test system: SNB-19 CNS
BT-549 breast = test system: BT-549 breast
HOP-62 NSCLC = test system: HOP-62 NSCLC
NCI-H23 lung = test system: NCI-H23 lung
LOX IMVI melanoma = test system: LOX IMVI melanoma

Compound `CNc1ccc(C(=O)CC(O)CCC(C)C2OC(=O)CC(O)CC(=O)CC(O)CC(O)CC(O)CC(O)CC3(O)CC(O)C(C(=O)N4CCOCC4)C(CC(OC4OC(C)C(O)C(N)C4O)/C=C/C=C/C=C/C=C\C=C/C=C/C=C/C2C)O3)cc1` (configuration not stated) has a TGI (SK-MEL-5 melanoma) of 0.462 µM, a TGI (MALME-3M melanoma) of 0.4 µM and a TGI (786-0 renal) greater than 100 µM. For the same compound, the TGI (SW-620 colon) was greater than 100 µM, the TGI (SK-OV-3 ovarian) was greater than 100 µM and the TGI (UACC-257 melanoma) was 0.384 µM. It also gave a TGI (COLO 205 colon) greater than 100 µM, a TGI (A549 NSCLC) greater than 100 µM and a TGI (HL-60(TB) leukemia) greater than 100 µM. For the same compound, the TGI (OVCAR-8 ovarian) was greater than 100 µM, the TGI (NCI-H522 lung) was 0.55 µM and the TGI (NCI-H226 lung) was 0.553 µM. It also gave a TGI (OVCAR-5 ovarian) greater than 100 µM, a TGI (K-562 leukemia) greater than 100 µM and a TGI (HCT-116 colon) greater than 100 µM. For the same compound, the TGI (SK-MEL-2 melanoma) was 8.55 µM, the TGI (DU-145 prostate) was 3.31 µM and the TGI (RXF 393 renal) was 0.637 µM. It also gave a TGI (MDA-MB-435) of 0.798 µM, a TGI (KM12 colon) of 0.747 µM and a TGI (MOLT-4 leukemia) greater than 100 µM.
`Cn1cc(-c2nc(-c3c[nH]c4ccncc34)cs2)c2cc(Br)ccc21` showed a GI50 (SK-MEL-5 melanoma) of 1.6 µM, a TGI (SK-MEL-5 melanoma) of 2.95 µM and a GI50 (UACC-257 melanoma) of 1.99 µM. The TGI (UACC-257 melanoma) was 3.52 µM, the GI50 (MDA-MB-231 breast) was 1.41 µM and the TGI (MDA-MB-231 breast) was 2.84 µM. It also gave a GI50 (OVCAR-5 ovarian) of 1.81 µM, a TGI (OVCAR-5 ovarian) of 3.27 µM and a GI50 (SK-MEL-2 melanoma) of 2 µM. The TGI (SK-MEL-2 melanoma) was 3.62 µM, the GI50 (DU-145 prostate) was 1.82 µM and the TGI (DU-145 prostate) was 3.28 µM. The GI50 (SNB-75 CNS) was 1.23 µM and the TGI (SNB-75 CNS) was 2.54 µM.
With `COc1ccc2[nH]c(O)c(N=NC(=O)c3oc4ccccc4c3C)c2c1` the GI50 (SF-268 CNS) was 5.18 µM, the TGI (SF-268 CNS) was 56.8 µM and the GI50 (HS 578T breast) was 2.41 µM. The TGI (HS 578T breast) was 7.72 µM, the GI50 (UACC-62 melanoma) was 5.19 µM and the TGI (UACC-62 melanoma) was greater than 100 µM. For the same compound, the GI50 (SN12C renal) was 2.82 µM, the TGI (SN12C renal) was greater than 100 µM and the GI50 (MDA-MB-231 breast) was 2.07 µM. It also gave a TGI (MDA-MB-231 breast) of 5.1 µM, a GI50 (EKVX NSCLC) of 2.94 µM and a TGI (EKVX NSCLC) greater than 100 µM. It also gave a GI50 (SNB-19 CNS) of 3.45 µM, a TGI (SNB-19 CNS) of 16.2 µM and a GI50 (BT-549 breast) of 5.38 µM. It also gave a TGI (BT-549 breast) of 33.7 µM, a GI50 (HL-60(TB) leukemia) greater than 100 µM and a TGI (HL-60(TB) leukemia) greater than 100 µM. It also gave a GI50 (HOP-62 NSCLC) of 1.92 µM, a TGI (HOP-62 NSCLC) of 4.02 µM and a GI50 (NCI-H23 lung) of 1.86 µM. It also gave a TGI (NCI-H23 lung) of 4.43 µM, a GI50 (OVCAR-8 ovarian) of 3.22 µM and a TGI (OVCAR-8 ovarian) greater than 100 µM. It also gave a GI50 (NCI-H522 lung) of 6.07 µM, a TGI (NCI-H522 lung) greater than 100 µM and a GI50 (LOX IMVI melanoma) of 3.16 µM. For the same compound, the TGI (LOX IMVI melanoma) was greater than 100 µM, the GI50 (SK-MEL-2 melanoma) was 2.56 µM and the TGI (SK-MEL-2 melanoma) was 6.62 µM. For the same compound, the GI50 (SNB-75 CNS) was 1.25 µM and the TGI (SNB-75 CNS) was 2.75 µM.
